For this experiment, the target named is T1, human sEH (Homo sapiens, UniProt P34913).
T1 sequence (P34913 1-555): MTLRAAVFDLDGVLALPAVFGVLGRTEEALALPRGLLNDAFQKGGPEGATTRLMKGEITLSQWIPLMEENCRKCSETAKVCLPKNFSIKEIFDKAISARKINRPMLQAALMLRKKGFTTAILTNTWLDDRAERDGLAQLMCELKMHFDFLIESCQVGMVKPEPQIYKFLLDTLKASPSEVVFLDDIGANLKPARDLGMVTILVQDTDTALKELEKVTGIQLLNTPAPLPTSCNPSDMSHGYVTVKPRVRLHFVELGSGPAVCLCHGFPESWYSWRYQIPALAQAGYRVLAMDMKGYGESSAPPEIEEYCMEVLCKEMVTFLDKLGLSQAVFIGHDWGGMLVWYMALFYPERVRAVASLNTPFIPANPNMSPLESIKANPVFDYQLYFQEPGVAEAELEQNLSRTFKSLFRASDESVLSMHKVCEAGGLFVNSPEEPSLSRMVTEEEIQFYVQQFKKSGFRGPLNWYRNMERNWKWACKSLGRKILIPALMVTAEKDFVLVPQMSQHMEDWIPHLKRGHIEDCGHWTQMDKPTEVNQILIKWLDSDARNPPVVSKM
The experiment in a line: fluorescent substrate. The experiment is classed as biochemical.

As for `CC(=O)N1CCN(CCCOc2ccc(NC(=O)NC34CC5CC(CC(C5)C3)C4)cc2)CC1` [Compound 28c, 1-(4-(3-(4-acetylpiperazin-1-yl)propoxy)phenyl)-3-adamantan-1-ylurea], for the setting “human sEH IC50 ratio”, the “fold increase in potency relative to N4-methyl substituted analog 16c” value came to 5.4 fold and the “fold increase in potency relative to N4-unsubstituted analog 24c” value was determined as 47.2 fold.
Take `CC(=O)N1CCN(CCCCOc2ccc(NC(=O)NC34CC5CC(CC(C5)C3)C4)cc2)CC1` [Compound 29c, 1-(4-(4-(4-acetylpiperazin-1-yl)butoxy)phenyl)-3-adamantan-1-yl urea]: the change fold is −2.9.
Same read-out and setting: for `CC(C)(C)OC(=O)N1CCN(CCCCOc2ccccc2NC(=O)NC23CC4CC(CC(C4)C2)C3)CC1` [Compound 21a] the value was 191.
